Measured values as given in publication PMC7127646 (Bioorganic & Medicinal Chemistry Letters, 2009).

Tests used:
SARS-CoV helicase [1] = biological target: T1, SARS-CoV helicase (Severe acute respiratory syndrome coronavirus, UniProt P0C6X7); type: biochemical
SARS-CoV helicase [2] = biological target: T1, SARS-CoV helicase; type: biochemical; remark: listed apart in the source

## O=c1c(O)c(-c2ccc3c(c2)OCO3)oc2cc(O)cc(O)c12 [Compound 3b, 2-Benzo[1,3]dioxol-5-yl-3,5,7-trihydroxy-chromen-4-one]
SARS-CoV helicase [1]
  inhibition of duplex DNA-unwinding activity (in words): failed to show any inhibition
SARS-CoV helicase [2]
  inhibition of helicase ATPase activity (in words): failed to show any inhibition
